Experimental findings from patent US20240316047A1, “INHIBITORS OF RNA HELICASE DHX9 AND USES THEREOF” (ACCENT THERAPEUTICS, INC., priority 2022, published 2024) are described below.

Human recombinant DHX9 protein, sequence (Q08211 whole entry): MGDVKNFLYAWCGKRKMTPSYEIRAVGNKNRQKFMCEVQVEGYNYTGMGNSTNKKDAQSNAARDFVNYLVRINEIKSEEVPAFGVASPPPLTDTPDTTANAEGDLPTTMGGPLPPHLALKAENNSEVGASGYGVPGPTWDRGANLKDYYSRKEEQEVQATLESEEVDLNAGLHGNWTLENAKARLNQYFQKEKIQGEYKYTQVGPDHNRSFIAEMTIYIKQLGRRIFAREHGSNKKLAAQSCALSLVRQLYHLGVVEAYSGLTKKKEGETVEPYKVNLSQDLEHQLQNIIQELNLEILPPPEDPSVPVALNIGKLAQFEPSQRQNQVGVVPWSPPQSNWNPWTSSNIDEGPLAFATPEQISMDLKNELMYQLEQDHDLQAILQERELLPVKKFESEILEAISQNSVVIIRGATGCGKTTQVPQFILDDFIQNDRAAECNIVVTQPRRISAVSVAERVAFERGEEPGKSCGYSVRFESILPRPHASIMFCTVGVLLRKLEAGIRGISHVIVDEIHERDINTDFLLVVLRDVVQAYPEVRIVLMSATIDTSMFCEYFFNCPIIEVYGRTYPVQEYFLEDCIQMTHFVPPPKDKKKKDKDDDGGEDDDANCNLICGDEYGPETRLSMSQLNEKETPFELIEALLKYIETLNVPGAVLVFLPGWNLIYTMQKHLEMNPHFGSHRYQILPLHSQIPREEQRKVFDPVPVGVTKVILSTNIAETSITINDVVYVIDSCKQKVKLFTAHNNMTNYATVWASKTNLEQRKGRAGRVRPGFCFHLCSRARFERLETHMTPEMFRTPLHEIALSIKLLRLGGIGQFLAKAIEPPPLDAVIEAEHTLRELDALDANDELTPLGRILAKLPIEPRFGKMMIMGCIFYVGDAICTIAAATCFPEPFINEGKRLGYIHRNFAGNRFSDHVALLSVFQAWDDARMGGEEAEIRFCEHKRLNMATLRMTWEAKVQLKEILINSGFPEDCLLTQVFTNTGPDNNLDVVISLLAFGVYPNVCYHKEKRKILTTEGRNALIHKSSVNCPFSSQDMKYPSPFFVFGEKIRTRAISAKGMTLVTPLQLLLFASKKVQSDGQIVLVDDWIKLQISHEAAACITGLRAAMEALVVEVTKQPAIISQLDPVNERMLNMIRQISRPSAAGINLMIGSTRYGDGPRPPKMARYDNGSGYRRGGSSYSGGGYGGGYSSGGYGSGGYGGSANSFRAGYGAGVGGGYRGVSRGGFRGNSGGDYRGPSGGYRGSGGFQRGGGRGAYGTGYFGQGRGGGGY

The first test addresses Human recombinant DHX9 protein (Homo sapiens (Human), UniProt Q08211). The test can be described thus: DHX9 ATPase assay (ADP-Glo). It is filed as biochemical.
Conditions: not given
On the technique in general: In ADP-Glo the light output rises with the ADP produced.
On to `CS(=O)(=O)Nc1cc(Cl)cc(NC(=O)c2cnn(-c3ncc(N4CCOCC4)cc3OCc3cccnc3)c2)c1` [Example 194], for which the “DHX9 Biochemical Max Inhibition” value was determined as 64.3%.

For `CC(C)(O)COc1cccnc1-n1cc(C(=O)Nc2cc(Cl)cc(NS(C)(=O)=O)c2)cn1` [Example 195], the “DHX9 Biochemical Max Inhibition” value worked out at 67.1%.

Consider `CS(=O)(=O)Nc1cc(Cl)cc(NC(=O)c2cnn(-c3ncccc3Oc3ncccn3)c2)c1` [Example 196], for which the “DHX9 Biochemical Max Inhibition” value amounted to 68.9%.

For the compound `COc1ccc(-n2cc(C(=O)Nc3cc(Cl)cc(NS(C)(=O)=O)c3)cn2)nc1` [Example 197], the “DHX9 Biochemical Max Inhibition” value was determined as 72.7%.

On to `CS(=O)(=O)Nc1cc(Cl)cc(NC(=O)c2cnn(-c3ccc(S(C)(=O)=O)cn3)c2)c1` [Example 198], for which the “DHX9 Biochemical Max Inhibition” value worked out at 60.7%.

`CS(=O)(=O)Nc1cc(Cl)cc(NC(=O)c2cnn(-c3ncccc3S(C)(=O)=O)c2)c1` [Example 199]: the “DHX9 Biochemical Max Inhibition” value was determined as 73.4%.

As for `CN(C)S(=O)(=O)c1ccc(-n2cc(C(=O)Nc3cc(Cl)cc(NS(C)(=O)=O)c3)cn2)nc1` [Example 200], the “DHX9 Biochemical Max Inhibition” value turned out to be 57.7%.

As for `CP(C)(=O)c1cccnc1-n1cc(C(=O)Nc2cc(Cl)cc(NS(C)(=O)=O)c2)cn1` [Example 201], the “DHX9 Biochemical Max Inhibition” value was 66.1%.

As to `CS(=O)(=O)Nc1cc(Cl)cc(NC(=O)c2cnn(-c3ncc(F)cc3OCc3cccc(F)c3)c2)c1` [Example 202], the “DHX9 Biochemical Max Inhibition” value was found to be 72.3%.

As for `CS(=O)(=O)Nc1cc(Cl)cc(NC(=O)c2cnn(-c3ncc(F)cc3OCc3cccc(C#N)c3)c2)c1` [Example 203], the “DHX9 Biochemical Max Inhibition” value came to 76.5%.

As for `Cc1ccc(OCc2cccc(F)c2)c(-n2cc(C(=O)Nc3cc(Cl)cc(NS(C)(=O)=O)c3)cn2)n1` [Example 204], the “DHX9 Biochemical Max Inhibition” value stood at 68.9%.

With `CS(=O)(=O)Nc1cc(Cl)cc(NC(=O)c2cnn(-c3ncccc3OCc3nccs3)c2)c1` [Example 205], the “DHX9 Biochemical Max Inhibition” value stood at 71.4%.

For `CS(=O)(=O)Nc1cc(Cl)cc(NC(=O)c2cnn(-c3ncccc3OCc3cn[nH]c3)c2)c1` [Example 206], the “DHX9 Biochemical Max Inhibition” value was determined as 74.9%.

`Cc1cc(C(=O)Nc2cc(Cl)cc(NS(C)(=O)=O)c2)cn1-c1ncc(F)cn1` [Example 207]: the “DHX9 Biochemical Max Inhibition” value was 70%.

`CCOc1cnc(-n2cc(C(=O)Nc3cc(Cl)cc(NS(C)(=O)=O)c3)cc2C)nc1` [Example 208]: the “DHX9 Biochemical Max Inhibition” value is on record as 79.9%.

With `CS(=O)(=O)Nc1cc(Cl)cc(NC(=O)c2cc3ccccn3c2)c1` [Example 209], the “DHX9 Biochemical Max Inhibition” value is 64%.

Turning to `CS(=O)(=O)Nc1cc(Cl)cc(NC(=O)c2cnn(-c3ccccc3OCc3cccc(F)c3)c2)c1` [Example 210], the “DHX9 Biochemical Max Inhibition” value came out at 71.3%.

`CS(=O)(=O)Nc1cc(Cl)cc(NC(=O)c2cnn(-c3c(F)cccc3OCc3cccc(F)c3)c2)c1` [Example 211]: the “DHX9 Biochemical Max Inhibition” value worked out at 65.4%.

On to `CNC(=O)c1sc(C(=O)Nc2cc(Cl)cc(NS(C)(=O)=O)c2)cc1-c1ncccc1OCc1ccccc1` [Example 212], for which the “DHX9 Biochemical Max Inhibition” value stood at 72.6%.

For `CN(C)C(=O)c1sc(C(=O)Nc2cc(Cl)cc(NS(C)(=O)=O)c2)cc1-c1ncccc1OCc1ccccc1` [Example 213], the “DHX9 Biochemical Max Inhibition” value is listed as 71.6%.

With `CS(=O)(=O)Nc1cc(F)cc(NC(=O)c2cc(-c3ncccc3OCc3ccccc3)cs2)c1` [Example 214], the “DHX9 Biochemical Max Inhibition” value is on record as 75.9%.

`CS(=O)(=O)Nc1cc(Cl)cc(NC(=O)c2cc(-c3ncccc3OCc3cnco3)cs2)c1` [Example 215]: the “DHX9 Biochemical Max Inhibition” value came out at 75.4%.

As for `CS(=O)(=O)Nc1cc(Cl)cc(NC(=O)c2cc(-c3ncccc3OCc3ccccc3)c(CO)s2)c1` [Example 216], the “DHX9 Biochemical Max Inhibition” value came out at 78%.

For the compound `CS(=O)(=O)Nc1cc(Cl)cc(NC(=O)c2cc(-c3ncccc3OCc3cccnc3)cs2)c1` [Example 217], the “DHX9 Biochemical Max Inhibition” value was determined as 69.6%.

For the compound `CSc1ccc(-n2cc(C(=O)Nc3cc(Cl)cc(NS(C)(=O)=O)c3)cn2)nc1` [Example 218], the “DHX9 Biochemical Max Inhibition” value was 59%.

The test is the same for the next values; noted with them: read-out: DHX9 Biochemical Inflection Point.
Take `CS(=O)(=O)Nc1cc(Cl)cc(NC(=O)c2cnn(-c3ncc(N4CCOCC4)cc3OCc3cccnc3)c2)c1` [Example 194]: the IC50 is 6.8 nM.

Take `CC(C)(O)COc1cccnc1-n1cc(C(=O)Nc2cc(Cl)cc(NS(C)(=O)=O)c2)cn1` [Example 195]: the IC50 stood at 35.3 nM.

Regarding `CS(=O)(=O)Nc1cc(Cl)cc(NC(=O)c2cnn(-c3ncccc3Oc3ncccn3)c2)c1` [Example 196], the IC50 is 78.6 nM.

For the compound `COc1ccc(-n2cc(C(=O)Nc3cc(Cl)cc(NS(C)(=O)=O)c3)cn2)nc1` [Example 197], the IC50 was 26 nM.

`CS(=O)(=O)Nc1cc(Cl)cc(NC(=O)c2cnn(-c3ccc(S(C)(=O)=O)cn3)c2)c1` [Example 198]: the IC50 is 71.3 nM.

`CS(=O)(=O)Nc1cc(Cl)cc(NC(=O)c2cnn(-c3ncccc3S(C)(=O)=O)c2)c1` [Example 199]: the IC50 is 84.4 nM.

For `CN(C)S(=O)(=O)c1ccc(-n2cc(C(=O)Nc3cc(Cl)cc(NS(C)(=O)=O)c3)cn2)nc1` [Example 200], the IC50 was determined as 84.6 nM.

As to `CP(C)(=O)c1cccnc1-n1cc(C(=O)Nc2cc(Cl)cc(NS(C)(=O)=O)c2)cn1` [Example 201], the IC50 turned out to be 184 nM.

As for `CS(=O)(=O)Nc1cc(Cl)cc(NC(=O)c2cnn(-c3ncc(F)cc3OCc3cccc(F)c3)c2)c1` [Example 202], the IC50 amounted to 12.7 nM.

`CS(=O)(=O)Nc1cc(Cl)cc(NC(=O)c2cnn(-c3ncc(F)cc3OCc3cccc(C#N)c3)c2)c1` [Example 203]: the IC50 came to 28.1 nM.

As for `Cc1ccc(OCc2cccc(F)c2)c(-n2cc(C(=O)Nc3cc(Cl)cc(NS(C)(=O)=O)c3)cn2)n1` [Example 204], the IC50 stood at 9.6 nM.

Regarding `CS(=O)(=O)Nc1cc(Cl)cc(NC(=O)c2cnn(-c3ncccc3OCc3nccs3)c2)c1` [Example 205], the IC50 came out at 22.6 nM.

As for `CS(=O)(=O)Nc1cc(Cl)cc(NC(=O)c2cnn(-c3ncccc3OCc3cn[nH]c3)c2)c1` [Example 206], the IC50 was 16.8 nM.

For `Cc1cc(C(=O)Nc2cc(Cl)cc(NS(C)(=O)=O)c2)cn1-c1ncc(F)cn1` [Example 207], the IC50 turned out to be 15.2 nM.

In the case of `CCOc1cnc(-n2cc(C(=O)Nc3cc(Cl)cc(NS(C)(=O)=O)c3)cc2C)nc1` [Example 208], the IC50 came out at 15.5 nM.

Consider `CS(=O)(=O)Nc1cc(Cl)cc(NC(=O)c2cc3ccccn3c2)c1` [Example 209], for which the IC50 came out at 89.4 nM.

For the compound `CS(=O)(=O)Nc1cc(Cl)cc(NC(=O)c2cnn(-c3ccccc3OCc3cccc(F)c3)c2)c1` [Example 210], the IC50 amounted to 3.6 nM.

Regarding `CS(=O)(=O)Nc1cc(Cl)cc(NC(=O)c2cnn(-c3c(F)cccc3OCc3cccc(F)c3)c2)c1` [Example 211], the IC50 was found to be 62.4 nM.

With `CNC(=O)c1sc(C(=O)Nc2cc(Cl)cc(NS(C)(=O)=O)c2)cc1-c1ncccc1OCc1ccccc1` [Example 212], the IC50 was found to be 5.2 nM.

On to `CN(C)C(=O)c1sc(C(=O)Nc2cc(Cl)cc(NS(C)(=O)=O)c2)cc1-c1ncccc1OCc1ccccc1` [Example 213], for which the IC50 came out at 16.4 nM.

Consider `CS(=O)(=O)Nc1cc(F)cc(NC(=O)c2cc(-c3ncccc3OCc3ccccc3)cs2)c1` [Example 214], for which the IC50 is 88 nM.

As for `CS(=O)(=O)Nc1cc(Cl)cc(NC(=O)c2cc(-c3ncccc3OCc3cnco3)cs2)c1` [Example 215], the IC50 came to 4 nM.

On to `CS(=O)(=O)Nc1cc(Cl)cc(NC(=O)c2cc(-c3ncccc3OCc3ccccc3)c(CO)s2)c1` [Example 216], for which the IC50 came out at 4.4 nM.

For `CS(=O)(=O)Nc1cc(Cl)cc(NC(=O)c2cc(-c3ncccc3OCc3cccnc3)cs2)c1` [Example 217], the IC50 came out at 2.1 nM.

On to `CSc1ccc(-n2cc(C(=O)Nc3cc(Cl)cc(NS(C)(=O)=O)c3)cn2)nc1` [Example 218], for which the IC50 was determined as 76.5 nM.
